Assay results taken from PubChem BioAssay AID2060903 (Molecular Pharmacology Branch, DTP, NCI, 2025).

Test system: 377384-186-R-J1-PDC complex spheroid viability
Assay: Anticancer human tumor 377384-186-R-J1-PDC patient-derived pancreatic carcinoma cell line growth inhibition [RAS]
Details: for viability, T/C: stronger effect = lower value; active = viability on the fitted dose curve at most 10% of control; inactive = the rest
In short: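 Agents were tested in combination matrices in half-log decrements from a top concentration at or near clinical Cmax (10 microM if undetermined). Targets were multi-cell spheroids of tumour lines plus HUVEC and MSC stromal cells.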

[1] = curve of first compound, second compound 0.00316 µM
[2] = curve of first compound, second compound 0.01 µM
[3] = curve of first compound, second compound 0.0316 µM
[4] = curve of first compound, second compound 0.1 µM
[5] = curve of first compound, second compound 0.316 µM
[6] = curve of first compound, second compound 1 µM
[7] = second compound 0.00316 µM, first compound 0.0316 µM
[8] = second compound 0.00316 µM, first compound 0.1 µM
[9] = second compound 0.00316 µM, first compound 0.316 µM
[10] = second compound 0.00316 µM, first compound 1 µM
[11] = second compound 0.00316 µM, first compound 3.16 µM
[12] = second compound 0.00316 µM, first compound 10 µM
[13] = second compound 0.01 µM, first compound 0.0316 µM
[14] = second compound 0.01 µM, first compound 0.1 µM
[15] = second compound 0.01 µM, first compound 0.316 µM
[16] = second compound 0.01 µM, first compound 1 µM
[17] = second compound 0.01 µM, first compound 3.16 µM
[18] = second compound 0.01 µM, first compound 10 µM
[19] = second compound 0.0316 µM, first compound 0.0316 µM
[20] = second compound 0.0316 µM, first compound 0.1 µM
[21] = second compound 0.0316 µM, first compound 0.316 µM
[22] = second compound 0.0316 µM, first compound 1 µM
[23] = second compound 0.0316 µM, first compound 3.16 µM
[24] = second compound 0.0316 µM, first compound 10 µM
[25] = second compound 0.1 µM, first compound 0.0316 µM
[26] = second compound 0.1 µM, first compound 0.1 µM
[27] = second compound 0.1 µM, first compound 0.316 µM
[28] = second compound 0.1 µM, first compound 1 µM
[29] = second compound 0.1 µM, first compound 3.16 µM
[30] = second compound 0.1 µM, first compound 10 µM
[31] = second compound 0.316 µM, first compound 0.0316 µM
[32] = second compound 0.316 µM, first compound 0.1 µM
[33] = second compound 0.316 µM, first compound 0.316 µM
[34] = second compound 0.316 µM, first compound 1 µM
[35] = second compound 0.316 µM, first compound 3.16 µM
[36] = second compound 0.316 µM, first compound 10 µM
[37] = second compound 1 µM, first compound 0.0316 µM
[38] = second compound 1 µM, first compound 0.1 µM
[39] = second compound 1 µM, first compound 0.316 µM
[40] = second compound 1 µM, first compound 1 µM
[41] = second compound 1 µM, first compound 3.16 µM
[42] = second compound 1 µM, first compound 10 µM
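Also: spheroids exposed to compounds for seven days before readout.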

CC(C)NCC(C(=O)N1CCN(c2ncnc3c2C(C)CC3O)CC1)c1ccc(Cl)cc1 (configuration not stated) + C=CC(=O)N1CCN(c2nc(OCC3CCCN3C)nc3c(F)c(-c4nc(N)cc(C)c4C(F)(F)F)c(Cl)cc23)C(C)C1
2060 nM: IC50 [6]
inactive: viability, T/C [7] 80.9% | viability, T/C [8] 95% | viability, T/C [9] 87.4% | viability, T/C [10] 61.7% | viability, T/C [11] 48.6% | viability, T/C [12] 32.6% | viability, T/C [13] 96.8% | viability, T/C [14] 78.1% | viability, T/C [15] 73.7% | viability, T/C [16] 63.3% | viability, T/C [17] 46.4% | viability, T/C [18] 35.9% | viability, T/C [19] 91.3% | viability, T/C [20] 96.7% | viability, T/C [21] 70% | viability, T/C [22] 67.1% | viability, T/C [23] 47.4% | viability, T/C [24] 38.1% | viability, T/C [25] 99.8% | viability, T/C [26] 85% | viability, T/C [27] 86.5% | viability, T/C [28] 58.7% | viability, T/C [29] 48.2% | viability, T/C [30] 35.5% | viability, T/C [31] 89.4% | viability, T/C [32] 102% | viability, T/C [33] 80.9% | viability, T/C [34] 56% | viability, T/C [35] 47.8% | viability, T/C [36] 35% | viability, T/C [37] 91.8% | viability, T/C [38] 97% | viability, T/C [39] 75.1% | viability, T/C [40] 61.7% | viability, T/C [41] 44.4% | viability, T/C [42] 32.8%
2670 nM: IC50 [2]
2450 nM: IC50 [4]
2320 nM: IC50 [1]
2780 nM: IC50 [3]
1760 nM: IC50 [5]

CCn1c(-c2cccnc2C(C)OC)c2c3cc(ccc31)N1CCOC(CC(NC(=O)C(C(C)C)N(C)C(=O)C3(F)CCN(C(=O)C#CC(C)(C)N(C)C)CC3)C(=O)N3CCCC(N3)C(=O)OCC(C)(C)C2)C1 (configuration not stated)
> 300 nM: IC50 (compound alone, run of 08/20/2024)
inactive: viability, T/C (compound 0.000949 µM) 105% [middle of 8 runs] | viability, T/C (compound 0.003 µM) 109% [middle of 8 runs] | viability, T/C (compound 0.03 µM) 99.3% [middle of 8 runs] | viability, T/C (compound 0.0949 µM) 99.5% [middle of 8 runs] | viability, T/C (compound 0.3 µM) 88% [middle of 8 runs]

NC1c2ccccc2OC12CCN(c1cnc3c(N4CCCc5ncccc54)n[nH]c3n1)CC2 (configuration not stated) + C=CC(=O)N1CCN(c2nc(OCC3CCCN3C)nc3c(F)c(-c4nc(N)cc(C)c4C(F)(F)F)c(Cl)cc23)C(C)C1
inactive: viability, T/C [7] 82.9% | viability, T/C [8] 77% | viability, T/C [9] 66.5% | viability, T/C [10] 69.1% | viability, T/C [11] 75.6% | viability, T/C [12] 68.4% | viability, T/C [13] 86.9% | viability, T/C [14] 63.1% | viability, T/C [15] 76.8% | viability, T/C [16] 71.9% | viability, T/C [17] 65.8% | viability, T/C [18] 63.8% | viability, T/C [19] 83.5% | viability, T/C [20] 68.8% | viability, T/C [21] 76% | viability, T/C [22] 65.7% | viability, T/C [23] 57.7% | viability, T/C [24] 66% | viability, T/C [25] 90.7% | viability, T/C [26] 70.1% | viability, T/C [27] 75.9% | viability, T/C [28] 64.5% | viability, T/C [29] 72.1% | viability, T/C [30] 70.7% | viability, T/C [31] 81.2% | viability, T/C [32] 70.8% | viability, T/C [33] 78.9% | viability, T/C [34] 70.3% | viability, T/C [35] 71.8% | viability, T/C [36] 71% | viability, T/C [37] 79.3% | viability, T/C [38] 73.3% | viability, T/C [39] 77.9% | viability, T/C [40] 73.1% | viability, T/C [41] 76.3% | viability, T/C [42] 68.4%
> 10000 nM: IC50 [1] | IC50 [2] | IC50 [3] | IC50 [4] | IC50 [5] | IC50 [6]

CC1(O)CCCC1n1c(=O)c(C(F)F)cc2cnc(NC3CCN(S(C)(=O)=O)CC3)nc21 (configuration not stated) + C=CC(=O)N1CCN(c2nc(OCC3CCCN3C)nc3c(F)c(-c4nc(N)cc(C)c4C(F)(F)F)c(Cl)cc23)C(C)C1
inactive: viability, T/C [7] 81.1% | viability, T/C [8] 49.7% | viability, T/C [9] 17% | viability, T/C [10] 24.2% | viability, T/C [11] 33.9% | viability, T/C [12] 4.64% | viability, T/C [13] 89.5% | viability, T/C [14] 45.1% | viability, T/C [15] 21.4% | viability, T/C [16] 20.8% | viability, T/C [17] 28.8% | viability, T/C [18] 4.18% | viability, T/C [19] 73.4% | viability, T/C [20] 49% | viability, T/C [21] 20.9% | viability, T/C [22] 20.7% | viability, T/C [23] 29.1% | viability, T/C [24] 5.27% | viability, T/C [25] 79.3% | viability, T/C [26] 42.1% | viability, T/C [27] 20.4% | viability, T/C [28] 24.4% | viability, T/C [29] 29.3% | viability, T/C [30] 4.69% | viability, T/C [31] 74.3% | viability, T/C [32] 42.8% | viability, T/C [33] 17.7% | viability, T/C [34] 21.5% | viability, T/C [35] 33% | viability, T/C [36] 5.33% | viability, T/C [37] 69.4% | viability, T/C [38] 39.9% | viability, T/C [39] 19.7% | viability, T/C [40] 22.5% | viability, T/C [41] 32.5% | viability, T/C [42] 6.56%
77.1 nM: IC50 [4]
67.5 nM: IC50 [6]
76.9 nM: IC50 [5]
86.6 nM: IC50 [2]
98.8 nM: IC50 [1]
95.4 nM: IC50 [3]
